Results as given in ChEMBL document CHEMBL5726113, “Compounds and methods for kinase modulation, and indications therefor” (2017).

Target: RAF proto-oncogene serine/threonine-protein kinase (Homo sapiens, UniProt P04049)
Assay: Biochemical Assay: Assays for biochemical and cell based activity are known in the art, for example, as described in PCT publication WO 2007/002433, the disclosure of which is hereby incorporated by reference as it relates to such assays. For example, the biochemical activity IC50 values are determined with respect to inhibition of B-Raf kinase activity, c-Raf-1 kinase activity, or B-Raf V600E kinase activity, where inhibition of phosphorylation of a peptide substrate is measured as a function of compound concentration. Compounds to be tested are diluted in dimethyl sulfoxide to a concentration of 0.1 mM. These are serially diluted 15 μL into 30 μL of dimethyl sulfoxide seven times in 96 well plates for a total of 8 dilution points, and for each dilution point 1 μL is added to a well of an assay plate. Plates are prepared such that each well in a 384 well plate contains 1 μL of compound in 10 μL volume with 0.1 ng Raf enzyme (i.e. any of B-Raf, c-Raf-1 or B-Raf V600E, Upstate Biotechnology or prepared by methods known to one of skill in the art), 50 mM HEPES, pH 7.0, 50 mM NaCl, 2 mM MgCl2, 1 mM MnCl2, 0.01% Tween-20, 1 mM DTT, and 100 nM biotin-MEK1 as substrate. The reaction is started with addition of 10 μL of 200 μM ATP (i.e. final 100 μM ATP). […]

RAF proto-oncogene serine/threonine-protein kinase, sequence (P04049 whole entry): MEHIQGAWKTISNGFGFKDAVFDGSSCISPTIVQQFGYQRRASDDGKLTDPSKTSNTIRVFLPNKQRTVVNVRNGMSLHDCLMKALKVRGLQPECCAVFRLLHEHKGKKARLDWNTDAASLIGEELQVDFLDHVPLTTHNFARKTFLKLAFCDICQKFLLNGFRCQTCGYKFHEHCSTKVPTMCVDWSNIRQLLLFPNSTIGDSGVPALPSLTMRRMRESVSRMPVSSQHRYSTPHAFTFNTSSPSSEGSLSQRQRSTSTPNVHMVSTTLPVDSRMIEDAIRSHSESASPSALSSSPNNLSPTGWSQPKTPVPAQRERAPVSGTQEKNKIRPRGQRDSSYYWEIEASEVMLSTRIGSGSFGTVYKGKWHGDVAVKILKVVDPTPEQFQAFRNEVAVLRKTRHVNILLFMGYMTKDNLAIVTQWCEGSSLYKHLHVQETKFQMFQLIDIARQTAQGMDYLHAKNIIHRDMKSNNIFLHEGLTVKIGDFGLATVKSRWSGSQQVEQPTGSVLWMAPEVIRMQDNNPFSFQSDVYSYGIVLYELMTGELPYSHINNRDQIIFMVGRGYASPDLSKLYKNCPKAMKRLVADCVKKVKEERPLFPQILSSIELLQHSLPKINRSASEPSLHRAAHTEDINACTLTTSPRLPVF

With `CCCS(=O)(=O)Nc1ccc(F)c(C(=O)c2c[nH]c3ncnc(Nc4ccccc4)c23)c1F` the IC50 was < 100 nM.
